From ChEMBL document CHEMBL5149970 (J Med Chem, 2021) come the findings set out here.

Series [1] has as its system EU-1. The settings on record: Homo sapiens, dose 1.0 µM, time 4.0 hrs.
Series [2] can be described thus: Oral bioavailability in Sprague-Dawley rat at 25 mg/kg measured for 24 hrs by LC-MS/MS analysis. The series is classed as ADME, organism-based. The settings on record: in vivo.
The nature of series [3]: Antiproliferative activity against human EU-3 cells assessed as reduction in cell survival incubated for 48 hrs by WST assay. The series is classed as functional, cell-based. As to conditions: EU-3, 48 h.
A short description of series [4]: Cmax in Sprague-Dawley rat at 10 mg/kg, iv measured for 24 hrs by LC-MS/MS analysis. The series is classed as ADME, organism-based. Further details: dose 10 mg/kg, time 24 hrs, route iv. As to conditions: in vivo.
In series [5] the test system is EU-1. As to the kind of experiment: Inhibition of MDM2/XIAP IRES mRNA interaction in human EU-1 cells assessed as induction of MDM2 degradation by measuring fold change in MDM2 protein expression at 1 uM measured after 120 mins by CHX chase assay (reference value: 0.69). The series is classed as cell-based.
Series [6] can be described thus: Clearance in Sprague-Dawley rat at 10 mg/kg, iv measured for 24 hrs by LC-MS/MS analysis. The series is classed as ADME, organism-based. The settings on record: in vivo.
Series [7] deals with EU-1. Description: Inhibition of MDM2/XIAP IRES mRNA interaction in human EU-1 cells assessed as increase in PUMA protein expression at 1 uM measured after 8 hrs by western blot analysis. The series is classed as cell-based. On the technique in general: A western blot detects proteins with antibodies after separation by electrophoresis.
The test system of another series is LA1-55n. As to the kind of experiment: Inhibition of colony formation in human LA1-55n cells assessed as reduction in colony number and size at 0.25 to 4 uM incubated for 2 weeks by crystal violet staining based analysis. The settings on record: dose 0.25-4 µM. The series is classed as functional, cell-based.
The subject of series [8] is EU-1. As to the kind of experiment: Inhibition of MDM2/XIAP IRES mRNA interaction in human EU-1 cells assessed as induction of MDM2 degradation by measuring downregulation of MDM2 protein expression incubated for 24 hrs by western blot analysis. As to conditions: dose 0.25-2 µM, DDE = dose-dependent effect. The series is classed as cell-based.
Series [9] relates to EU-1. As to the kind of experiment: Inhibition of MDM2/XIAP IRES mRNA interaction in human EU-1 cells assessed as fold change in p53 protein expression at 1 uM measured after 30 mins by CHX chase assay (reference value: 0.38). The series is classed as cell-based.
Series [10] in a line: AUC in Sprague-Dawley rat at 10 mg/kg, iv measured for 24 hrs by LC-MS/MS analysis. The class given is ADME, organism-based. More on the design: dose 10 mg/kg, time 24 hrs, route iv. As to conditions: in vivo.

Activity calls are given as the source filed them. No cut-off for these calls is given here. Some results are limits rather than exact numbers.

Broadly, the IC50 is the concentration needed to halve the response being measured. One may read the Cmax as the peak of the concentration-time curve. Usually AUC stands for concentration integrated over time. Lower therefore signals low exposure. As for `Cc1ccc(NS(=O)(=O)c2ccc3c(c2)C2OCCC2C(c2ccc(C(=O)C(C)C)cc2)N3)cc1C` (stereo unspecified), the T1/2 in the series on EU-1 [1] was under 1 h. This compound also gave a F in [2] of 5.9%. The IC50 in [3] was found to be 300 nM. This compound gave a Cmax in series [4] of 8200 ng/mL. Further, the fold change (FC) worked out at 0.13 with EU-1 [5] and 1.06 with EU-1 [9]. The CL in series [6] worked out at 35.3 mL/min/kg. Further, the inhibition entry in the series with EU-1 [7] and in the series with LA1-55n was “Active” each time. The inhibition result in the series with EU-1 [8] is “Dde”. The same compound gave an AUC in [10] of 4750 ng·h/mL.
